Measurements reported in US20210186997A1, “METHODS AND COMPOSITIONS FOR INCREASING NAD LEVEL IN MAMMALS WITH D-RIBOSE AND VITAMIN B3” (Bioenergy Life Science, Inc., priority 2018, published 2021).
Entries after “also recorded” stand apart in the source; their conditions may differ.

Tests used:
NR levels = experiment: Experiment 1: NR levels in blood by LC/MS after bolus administration; format: in vivo, Sprague-Dawley rats; conditions: male rats, bolus 100 mg/kg, 0.25-24 hours after feeding, compared to baseline, FIG. 2
Method: Four groups of four male Sprague-Dawley rats were each bolus administered the different compounds identified in the table below at a dosage of 100 mg per kg of body weight: [table] The blood drawn from each of the groups at the increments referenced above were also measured by LC/MS for NR levels. The measured NR levels are charted in FIG. 2, with each data point being the average of three animals of the same sex.

NAD levels = experiment: Experiment 1: NAD levels in blood by LC/MS after bolus administration; format: in vivo, Sprague-Dawley rats; conditions: for NAD levels in blood: male rats, bolus 100 mg per kg of body weight, 0.25-24 hours after feeding, compared to baseline, FIG. 1
Method: Four groups of four male Sprague-Dawley rats were each bolus administered the different compounds identified in the table below at a dosage of 100 mg per kg of body weight:
A blood sample of 0.1 ml was drawn from each rat of each group at increments of 0.25, 0.5, 1, 2, 4, 8 and 24 hours after feeding. Each of the blood samples were then measured by Liquid Chromatography/Mass Spectrometry (LC/MS) for NAD levels. The measured NAD levels are charted in FIG. 1, with each data point being the average of the four rats of each group.

NAD+ = experiment: Experiment 3: NAD+ in blood by LC/MS/MS, oral dosing twice daily for five days; format: in vivo, Sprague-Dawley male rats; conditions: Nicotinamide control (coated nicotinamide 108 mg/kg PO BID), relative to RiaGev dose-response line, FIG. 11
Method: Eighteen Sprague-Dawley male rats were selected as test animals in the study, with three rats for each of six treatment groups. Sprague-Dawley male rats were selected because they have been widely used in similar experiments with reliable results. The use of three rats per group offers the minimum number required to calculate useful means and standard deviations for graphical representation of the data. For five consecutive days, the rats were dosed at approximately 7:30-8:30 a.m. and at approximately 4:30-5:45 p.m. Blood was collected approximately 0.5 to 1.5 hours following each p.m. dosing and immediately processed and assayed for NAD+, NMN, and NR by LC/MS/MS. The timing of the supplementation doses was chosen to mimic behavior in humans and other non-nocturnal mammals (i.e., diurnal mammals) of eating breakfast in the morning and dinner in the early evening by administering the doses to the animals at around those times. […] Thus the evening sampling time for the rats would correspond to the morning for humans and other diurnal mammals. The animals were humanely euthanized after the final blood draw and representative samples of the liver, biceps muscle, peripheral adipose tissue, and whole brain were collected, snap frozen, extracted, and assayed for NAD+, NMN, and NR by LC/MS/MS. […]

SMILES | NR levels in blood (NR levels) | NAD levels in blood (NAD levels) | time to peak blood NAD level (NAD levels; after consumption) | blood NAD concentration change over its base (water control) level (NAD+)
O=C[C@H](O)[C@H](O)[C@H](O)CO [D-ribose] | enhance NR levels | elevated NAD levels; also recorded: increases NAD levels |  | 
O=C(O)c1cccnc1 [Niacin, Nicotinic Acid (Niacin)] | enhance NR levels | elevated NAD levels |  | 
NC(=O)c1ccc[n+]([C@@H]2O[C@H](CO)[C@@H](O)[C@H]2O)c1 [Nicotinamide Riboside (NR), Nicotinamide Riboside] |  | highest peak value | about 8 hours | 
NC(=O)c1cccnc1 [Nicotinamide] |  |  |  | outside of the line
